Type in all cases: functional
For assay [1], the system named is Psoroptes ovis. Put plainly: Acaricidal activity against Psoroptes cuniculi at 1 uL after 24 hrs by inhalation assay.
Assay [2] relates to Psoroptes ovis. As to the kind of experiment: Acaricidal activity against Psoroptes cuniculi at 1% dilution in physiological saline after 48 hrs by direct contact assay.
Assay [3] deals with Psoroptes ovis. As to the kind of experiment: Acaricidal activity against Psoroptes cuniculi at 0.25% dilution in physiological saline after 48 hrs by direct contact assay.
The test system of assay [4] is Psoroptes ovis. As to the kind of experiment: Acaricidal activity against Psoroptes cuniculi at 6 uL after 24 hrs by inhalation assay.
The test system of assay [5] is Psoroptes ovis. As to the kind of experiment: Acaricidal activity against Psoroptes cuniculi at 0.125% dilution in physiological saline after 48 hrs by direct contact assay.
For assay [6], the system named is Psoroptes ovis. Put plainly: Acaricidal activity against Psoroptes cuniculi at 3 uL after 24 hrs by inhalation assay.
For assay [7], the system named is Psoroptes ovis. As to the kind of experiment: Acaricidal activity against Psoroptes cuniculi at 36 uL after 24 hrs by inhalation assay.
Assay [8] has as its system Psoroptes ovis. As to the kind of experiment: Acaricidal activity against Psoroptes cuniculi at 18 uL after 24 hrs by inhalation assay.

In the case of `CC1=CCC(O)(C(C)C)CC1` (stereo not drawn) [TERPINEOL], the Activity in assay [1] stood at 5%; in assay [2], 100%; in assay [3], 100%; in assay [4], 100%; in assay [5] it was 100%; in assay [6] it was 41.7%.

As for `C=CC(C)(O)CCC=C(C)C` (stereo not drawn) [LINALOOL], the Activity in assay [1] turned out to be 36.7%; in assay [2] it was 100%; in assay [3] it was 100%; in assay [4], 100%; in assay [5], 97%; in assay [6], 75%.

Regarding `C=CCc1ccc(O)c(OC)c1` [EUGENOL], the Activity in assay [1] was 86.7%; in assay [2], 100%; in assay [3] it was 100%; in assay [4], 100%; in assay [5], 100%; in assay [6], 96.7%.

Take `C=CC(=C)CCC=C(C)C` [MYRCENE]: the Activity is on record as 0% in assay [1]; 0% in assay [2]; 0% in assay [3]; 6.7% in assay [4]; 0% in assay [5]; 5.2% in assay [6].

For the molecule `CC1=CCC(C(C)C)=CC1` [GAMMA-TERPINENE], the Activity in assay [1], in assay [2], in assay [3], in assay [4], in assay [5] and in assay [6] was 0% in each case.

On to `Cc1ccc(C(C)C)c(O)c1` [THYMOL], for which the Activity in assay [7], in assay [2], in assay [3], in assay [8], in assay [4] and in assay [5] was 100% throughout.

On to `C=C(C)[C@H]1CC=C(C)CC1` [D-LIMONENE], for which the Activity in assay [1], in assay [2], in assay [3], in assay [4], in assay [5] and in assay [6] was 0% throughout.

Take `CC1=CC[C@@H](C(C)(C)O)CC1` [ALPHA-TERPINEOL]: the Activity in assay [1] is given as 73.3%; in assay [2], 100%; in assay [3], 100%; in assay [4], 98.3%; in assay [5], 100%; in assay [6] it was 98.3%.

Take `CC(C)=CCC/C(C)=C/CO` [GERANIOL]: the Activity in assay [1] was 95%; in assay [2] it was 100%; in assay [3], 100%; in assay [4] it was 96.7%; in assay [5], 100%; in assay [6], 93.3%.

For the molecule `CC(C)=CCC/C(C)=C\CO` [NEROL], the Activity in assay [1] was found to be 36.7%; in assay [2], 100%; in assay [3], 98.3%; in assay [4], 100%; in assay [5] it was 100%; in assay [6] it was 83.3%.

For the molecule `C=CC(C)(CCC=C(C)C)OC(C)=O` (stereo not drawn) [LINALYL ACETATE], the Activity in assay [1] was 0%; in assay [2] it was 40%; in assay [3] it was 35%; in assay [4], 20%; in assay [5], 5%; in assay [6] it was 13.3%.

Take `C=CCc1ccc(OC)cc1` [ESTRAGOLE]: the Activity in assay [1] was 0%; in assay [2], 100%; in assay [3] it was 63.3%; in assay [4], 5%; in assay [5], 0%; in assay [6] it was 6.7%.

Regarding `CC1CCC(C(C)C)C(O)C1` (stereo not drawn) [MENTHOL], the Activity in assay [7], in assay [2], in assay [3], in assay [8], in assay [4] and in assay [5] was 100% throughout.

The values are drawn from ChEMBL document CHEMBL1148101, “Structure/activity relationship of some natural monoterpenes as acaricides against Psoroptes cuniculi” (1995).
